Source: patent publication US20250051321A1, “TRICYCLIC DERIVATIVE AND PREPARATION METHOD THEREFOR AND APPLICATION THEREOF” (SHANGHAI JEMINCARE PHARMACEUTICAL CO., LTD., priority 2021, published 2025)

system: plasma LPA 18:1 and LPA 18:2; experiment: Human plasma ex vivo assay (LPA 18:1 / 18:2 by LC-MS/MS); assay type: biochemical; conditions: 37° C., 2 hours, LPA 18:1, read-out: Human plasma ex vivo assay IC50 (18:1 LPA)
Summary of the method: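 Human plasma incubated 2 h at 37° C with compound (8 points, 1:3 dilution, top 10 μM, 0.1% DMSO), then quenched with 0.1% FA containing LPA 17:0 internal standard.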

IC50 [nM] | Structure (SMILES)
149 | C[C@H]1CN(CC(=O)N2CC(O)C2)CCN1c1cc(F)c2nc3c(c(N(C)c4nc(-c5ccc(F)cc5)c(C#N)s4)c2c1)CCC3O (some centres unmarked) [Example E7]
175 | C[C@H]1CN(c2cc(F)c3nc4c(c(N(C)c5nc(-c6ccc(F)cc6)c(C#N)s5)c3c2)CCC4O)CCN1CC(=O)N1CC(O)C1 (some centres unmarked) [Example E8]
160 | C[C@@H]1CN(c2cc(F)c3nc4c(c(N(C)c5nc(-c6ccc(F)cc6)c(C#N)s5)c3c2)CCC4O)CCN1CC(=O)N1CC(O)C1 (some centres unmarked) [Example E9]
139 | CN(c1nc(-c2ccc(F)cc2)c(C#N)s1)c1c2c(nc3c(F)cc(N4CCN(CC(=O)N5CC(C)(O)C5)CC4)cc13)C(O)CC2 (centres unmarked) [Example E10]

The remaining lines, values behind:

Structure (SMILES) | IC50 [nM]
CN(c1nc(-c2ccc(F)cc2)c(C#N)s1)c1c2c(nc3c(F)cc(N4CC5(CN(C(=O)C(C)(C)O)C5)C4)cc13)[C@](C)(O)CC2 (single isomer, unassigned) [Example E35-b] | 457
CN(c1nc(-c2ccc(F)cc2)c(C#N)s1)c1c2c(nc3c(F)cc(N4CCC5(CCN(C(=O)[C@@H]6CCOC6)C5)C4)cc13)CCC2 (some centres unmarked) [Example C14] | 310
CN(c1nc(-c2ccc(F)cc2)c(C#N)s1)c1c2c(nc3c(F)cc(N4CCC5(CCN(C(=O)[C@@H]6CCOC6)CC5)C4)cc13)CCC2 [Example C15] | 285
CN(c1nc(-c2ccc(F)cc2)c(C#N)s1)c1c2c(nc3c(F)cc(N4CC5(CN(C(=O)C6(O)CCOCC6)C5)C4)cc13)COC2 [Example C20] | 677
Cc1cc(N2CC3(CN(C(=O)C(C)(C)O)C3)C2)cc2c(N(C)c3nc(-c4ccc(F)cc4)c(C#N)s3)c3c(nc12)CC3 [Example C26] | 588
CN(c1nc(-c2ccc(F)cc2)c(C#N)s1)c1c2c(nc3c(F)cc(N4CC5(CN(C(=O)C(C)(C)O)C5)C4)cc13)CC2 [Example C28] | 545
Cc1cc(N2CC3(CN(C(=O)C(C)(C)O)C3)C2)nc2c(N(C)c3nc(-c4ccc(F)cc4)c(C#N)s3)c3c(nc12)CC3 [Example C29] | 251

same assay, conditions: 37° C., 2 hours, LPA 18:2, read-out: Human plasma ex vivo assay IC50 (18:2 LPA)

IC50 [nM] | Structure (SMILES)
327 | C[C@H]1CN(CC(=O)N2CC(O)C2)CCN1c1cc(F)c2nc3c(c(N(C)c4nc(-c5ccc(F)cc5)c(C#N)s4)c2c1)CCC3O (some centres unmarked) [Example E7]
160 | C[C@H]1CN(c2cc(F)c3nc4c(c(N(C)c5nc(-c6ccc(F)cc6)c(C#N)s5)c3c2)CCC4O)CCN1CC(=O)N1CC(O)C1 (some centres unmarked) [Example E8]
152 | C[C@@H]1CN(c2cc(F)c3nc4c(c(N(C)c5nc(-c6ccc(F)cc6)c(C#N)s5)c3c2)CCC4O)CCN1CC(=O)N1CC(O)C1 (some centres unmarked) [Example E9]
270 | CN(c1nc(-c2ccc(F)cc2)c(C#N)s1)c1c2c(nc3c(F)cc(N4CCN(CC(=O)N5CC(C)(O)C5)CC4)cc13)C(O)CC2 (centres unmarked) [Example E10]

Second part, the molecule before the results:

Structure (SMILES) | IC50 [nM]
CN(c1nc(-c2ccc(F)cc2)c(C#N)s1)c1c2c(nc3c(F)cc(N4CC5(CN(C(=O)C(C)(C)O)C5)C4)cc13)[C@](C)(O)CC2 (single isomer, unassigned) [Example E35-b] | 407
CN(c1nc(-c2ccc(F)cc2)c(C#N)s1)c1c2c(nc3c(F)cc(N4CCC5(CCN(C(=O)[C@@H]6CCOC6)C5)C4)cc13)CCC2 (some centres unmarked) [Example C14] | 379
CN(c1nc(-c2ccc(F)cc2)c(C#N)s1)c1c2c(nc3c(F)cc(N4CCC5(CCN(C(=O)[C@@H]6CCOC6)CC5)C4)cc13)CCC2 [Example C15] | 326
CN(c1nc(-c2ccc(F)cc2)c(C#N)s1)c1c2c(nc3c(F)cc(N4CC5(CN(C(=O)C6(O)CCOCC6)C5)C4)cc13)COC2 [Example C20] | 362
Cc1cc(N2CC3(CN(C(=O)C(C)(C)O)C3)C2)cc2c(N(C)c3nc(-c4ccc(F)cc4)c(C#N)s3)c3c(nc12)CC3 [Example C26] | 435
CN(c1nc(-c2ccc(F)cc2)c(C#N)s1)c1c2c(nc3c(F)cc(N4CC5(CN(C(=O)C(C)(C)O)C5)C4)cc13)CC2 [Example C28] | 574
Cc1cc(N2CC3(CN(C(=O)C(C)(C)O)C3)C2)nc2c(N(C)c3nc(-c4ccc(F)cc4)c(C#N)s3)c3c(nc12)CC3 [Example C29] | 220

system: not listed separately; experiment: Pharmacokinetic test in mice; assay type: in vivo, ICR mice; conditions: male, ICR, mouse, plasma, 1 mg/kg, IV - 1 mpk
Procedure: Dosage preparation: The dosing solution was prepared on the day of dosing. 2 mg of compound was weighed and dissolved in 5% DMSO+10% solutol+85% saline to prepare a solution for intravenous administration at a concentration of 0.2 mg/mL. 2 mg of compound was weighed and dissolved in 25% PEG 200+75% (0.5% MC) to obtain a solution for oral administration at a concentration of 1 mg/mL.
Six healthy male naïve ICR mice, weighing 25 to 30 g, were divided into two groups (intravenous and oral groups) with three in each group, and administered in a single dose. After 3 days of acclimatization, the mice were fasted overnight (10 to 12 hours) the night before the experiment, but had free access to water during the experiment, and the diet was resumed 4 hours after administration. After intravenous and oral administration, the timer was started. Blood was collected via the orbital venous plexus at the scheduled time points (IV&PO: 0.083, 0.25, 0.5, 1, 2, 4, 6, 8, and 24 hours). 40 μL of whole blood was collected at each point and added to a 1.5 mL EP tube containing sodium heparin. The collected whole blood was vibrated twice on a vortex mixer, mixed well, placed on wet ice, and centrifuged at 8000 rpm for 5 minutes at 4° C. within 1 hour. The supernatant plasma was stored in a −80° C. freezer until processing for analysis.

Structure (SMILES) | AUC [ng·h/mL] | C0 [ng/mL] | half-life [h]
CN(c1nc(-c2ccc(F)cc2)c(C#N)s1)c1c2c(nc3c(F)cc(N4CC5(CN(C(=O)C(C)(C)O)C5)C4)cc13)[C@](C)(O)CC2 (single isomer, unassigned) [Example E35-b] | 6770 | 2920 | 2.51
CN(c1nc(-c2ccc(F)cc2)c(C#N)s1)c1c2c(nc3c(F)cc(N4CC5(CN(C(=O)C(C)(C)O)C5)C4)cc13)CC2 [Example C28] | 14100 | 2110 | 3.63
Cc1cc(N2CC3(CN(C(=O)C(C)(C)O)C3)C2)nc2c(N(C)c3nc(-c4ccc(F)cc4)c(C#N)s3)c3c(nc12)CC3 [Example C29] | 12600 | 2600 | 2.73

same assay, conditions: male, ICR, mouse, plasma, 1 mg/kg, IV - 1 mpk, read-out: CL (mL/min/kg, IV)

Structure (SMILES) | clearance [mL/min/kg]
CN(c1nc(-c2ccc(F)cc2)c(C#N)s1)c1c2c(nc3c(F)cc(N4CC5(CN(C(=O)C(C)(C)O)C5)C4)cc13)[C@](C)(O)CC2 (single isomer, unassigned) [Example E35-b] | 2.51
CN(c1nc(-c2ccc(F)cc2)c(C#N)s1)c1c2c(nc3c(F)cc(N4CC5(CN(C(=O)C(C)(C)O)C5)C4)cc13)CC2 [Example C28] | 1.21
Cc1cc(N2CC3(CN(C(=O)C(C)(C)O)C3)C2)nc2c(N(C)c3nc(-c4ccc(F)cc4)c(C#N)s3)c3c(nc12)CC3 [Example C29] | 1.39

same assay, conditions: male, ICR, mouse, plasma, 5 mg/kg, PO - 5 mpk

Structure (SMILES) | AUC [ng·h/mL] | Cmax [ng/mL] | Tmax [h] | half-life [h]
CN(c1nc(-c2ccc(F)cc2)c(C#N)s1)c1c2c(nc3c(F)cc(N4CC5(CN(C(=O)C(C)(C)O)C5)C4)cc13)[C@](C)(O)CC2 (single isomer, unassigned) [Example E35-b] | 14700 | 3140 | 1.58 | 2.05
Cc1cc(N2CC3(CN(C(=O)C(C)(C)O)C3)C2)cc2c(N(C)c3nc(-c4ccc(F)cc4)c(C#N)s3)c3c(nc12)CC3 [Example C26] | 124000 | 8390 | 4.08 | 5.13
CN(c1nc(-c2ccc(F)cc2)c(C#N)s1)c1c2c(nc3c(F)cc(N4CC5(CN(C(=O)C(C)(C)O)C5)C4)cc13)CC2 [Example C28] | 125000 | 10200 | 3 | 2.82
Cc1cc(N2CC3(CN(C(=O)C(C)(C)O)C3)C2)nc2c(N(C)c3nc(-c4ccc(F)cc4)c(C#N)s3)c3c(nc12)CC3 [Example C29] | 36500 | 3640 | 0.67 | 1.89

same assay, conditions: male, ICR, mouse, plasma, 5 mg/kg, PO - 5 mpk vs IV - 1 mpk

Structure (SMILES) | bioavailability [%]
CN(c1nc(-c2ccc(F)cc2)c(C#N)s1)c1c2c(nc3c(F)cc(N4CC5(CN(C(=O)C(C)(C)O)C5)C4)cc13)[C@](C)(O)CC2 (single isomer, unassigned) [Example E35-b] | 43.5
CN(c1nc(-c2ccc(F)cc2)c(C#N)s1)c1c2c(nc3c(F)cc(N4CC5(CN(C(=O)C(C)(C)O)C5)C4)cc13)CC2 [Example C28] | 176
Cc1cc(N2CC3(CN(C(=O)C(C)(C)O)C3)C2)nc2c(N(C)c3nc(-c4ccc(F)cc4)c(C#N)s3)c3c(nc12)CC3 [Example C29] | 57.7

target: ATX (Homo sapiens (Human), UniProt Q13822); experiment: ATX enzyme inhibition assay (Amplex UltraRed/choline oxidase/HRP, 16:0 Lyso PC substrate); assay type: biochemical; conditions: assay buffer pH 7.5; read-out: IC50 (nM) pH 7.5
Summary of the method: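 ATX (2× stock […]) preincubated with compound for 10 min at room temperature in assay buffer at pH 8.5 or 7.5. Reaction started with 16:0 Lyso PC, choline oxidase, HRP and Amplex UltraRed (2.5× working stock); fluorescence read kinetically (ex 550/em 590 nm) for 60 min.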

Structure (SMILES) | IC50 [nM]
CN(c1nc(-c2ccc(F)cc2)c(C#N)s1)c1c2c(nc3c(F)cc(N4CCC5(CCN(C(=O)[C@@H]6CCOC6)C5)C4)cc13)CCC2 (some centres unmarked) [Example C14] | 334
CN(c1nc(-c2ccc(F)cc2)c(C#N)s1)c1c2c(nc3c(F)cc(N4CCC5(CCN(C(=O)[C@@H]6CCOC6)CC5)C4)cc13)CCC2 [Example C15] | 232

same assay, conditions: assay buffer pH 8.5; read-out: IC50 (nM) pH 8.5

IC50 [nM] | Structure (SMILES)
15.4 | C[C@H]1CN(CC(=O)N2CC(O)C2)CCN1c1cc(F)c2nc3c(c(N(C)c4nc(-c5ccc(F)cc5)c(C#N)s4)c2c1)CCC3O (some centres unmarked) [Example E7]
15.4 | C[C@H]1CN(c2cc(F)c3nc4c(c(N(C)c5nc(-c6ccc(F)cc6)c(C#N)s5)c3c2)CCC4O)CCN1CC(=O)N1CC(O)C1 (some centres unmarked) [Example E8]
19.6 | C[C@@H]1CN(c2cc(F)c3nc4c(c(N(C)c5nc(-c6ccc(F)cc6)c(C#N)s5)c3c2)CCC4O)CCN1CC(=O)N1CC(O)C1 (some centres unmarked) [Example E9]
16.2 | CN(c1nc(-c2ccc(F)cc2)c(C#N)s1)c1c2c(nc3c(F)cc(N4CCN(CC(=O)N5CC(C)(O)C5)CC4)cc13)C(O)CC2 (centres unmarked) [Example E10]

More lines, now with the values behind:

Structure (SMILES) | IC50 [nM]
CN(c1nc(-c2ccc(F)cc2)c(C#N)s1)c1c2c(nc3c(F)cc(N4CCC5(CCN(C(=O)[C@@H]6CCOC6)C5)C4)cc13)CCC2 (some centres unmarked) [Example C14] | 83.1
CN(c1nc(-c2ccc(F)cc2)c(C#N)s1)c1c2c(nc3c(F)cc(N4CCC5(CCN(C(=O)[C@@H]6CCOC6)CC5)C4)cc13)CCC2 [Example C15] | 60.6
CN(c1nc(-c2ccc(F)cc2)c(C#N)s1)c1c2c(nc3c(F)cc(N4CC5(CN(C(=O)C6(O)CCOCC6)C5)C4)cc13)COC2 [Example C20] | 24.2
